Data from US20210388028A1, “GLYCOPEPTIDE DERIVATIVE COMPOUNDS AND USES THEREOF” (INSMED INCORPORATED, priority 2018, published 2021).

What was measured:
[1] = system: gram positive pathogens including S. Aureus methicillin-susceptible and resistant isolates; experiment: antibacterial activity against gram positive pathogens; assay type: cell-based
[2] = design: species or system Sprague Dawley rats; conditions: rat, in vivo, inhaled or intranasal, 10 mg/kg
Description: 120 h single dose in vivo PK experiments of nebulized inhaled compounds were performed in healthy male Sprague Dawley rats at target body-weight doses of 10 mg/kg (RV40) or 1.5 mg/kg (TLV, RV104, RV106), using a 12-port nose-only chamber (CH Technologies, Westwood, N.J., USA) equipped with an Aerogen Aeroneb Pro mesh nebulizer. The aerosol was provided to chamber at a flow rate of 6 L/min. Lungs were collected, and drug concentrations measured by HPLC-MS/MS.
Chemical modification of the compound to include an additional moiety at R=x was accomplished to improve reduce the compound's predictive hydrophobicity.

With `CCCCCCCCCCNCCN[C@@]1(C)C[C@H](O[C@H]2[C@H](Oc3c4cc5cc3Oc3ccc(cc3Cl)[C@@H](O)[C@@H](NC(=O)[C@@H](CC(C)C)NC)C(=O)N[C@@H](CC(N)=O)C(=O)N[C@H]5C(=O)N[C@H]3C(=O)N[C@H](C(=O)N[C@H](C(=O)O)c5cc(O)cc(O)c5-c5cc3ccc5O)[C@H](O)c3ccc(c(Cl)c3)O4)O[C@H](CO)[C@@H](O)[C@@H]2O)O[C@@H](C)[C@H]1O` [RV40] the antibacterial activity [1] was “potent antibacterial activity” and the “half-life in lung tissue (t1/2)” value [2] was 12.5 days.
